Measured values as given in publication PMC7731434, “Development and Validation of a Bioanalytical Method for 3′- and 6′-Sialyllactose in Minipig Liver and Kidney Using Liquid Chromatography-Tandem Mass Spectrometry and Its Application to Analysis of Tissue Distribution” (Molecules, 2020).
Where two headings read alike, the source gives them in different places.

Assays:
[1] = Biological sample stability: post-preparative, autosampler tray; assay type: physicochemical, minipig; settings: for Post-preparative stability (RE), range: 21 h at 10 °C; for Post-preparative stability, RE (%): 10 °C for 21 h, n = 3
Protocol: (§1) Benchtop and long-term stability were evaluated simultaneously. The benchtop stability test was carried out at room temperature (24 °C) for 4 h using samples with long-term stability, i.e., those stored at −80 °C for 34 days. […] The post-preparative stability (RE) of samples after 21 h of storage at 10 °C in an autosampler tray ranged from –3.1% to 8.7% for liver QC samples and −10.2% to 4.7% for kidney QC samples of 3′-SL and 6′-SL. To investigate freeze/thaw stability, QC samples were frozen at −80 °C and thawed at room temperature over four cycles. The stability of all QC samples of 3′-SL and 6′-SL ranged from −6.7% to 7.6% for the liver and −9.3% to −3.2% for the kidney. All stability results satisfied the acceptance criterion of ±15% of the nominal concentration.
(§2) The biological samples were evaluated for benchtop, freeze/thaw, post-preparative, and long-term stability. The stability tests were performed by measuring LQC and HQC samples with three replicates. The background concentration of SL in the blank authentic tissues was set to the nominal LQC concentration in the stability test. As the background concentration of SL in the authentic matrix is similar to or higher than the LQC (60 ng/g), the deviation of the background concentration of SL markedly affects the accuracy of LQC. The background concentration of the blank samples was determined on initiation of the stability test. The HQC samples were prepared by adding a standard solution to the authentic matrix, and the results were calculated by subtracting the endogenous concentration in the blank matrix. Benchtop and long-term stability were evaluated simultaneously with the benchtop stability test carried out at room temperature (approximately 24 °C) for 4 h using samples with long-term stability (stored at −80 °C for 34 days). The post-preparative stability was assessed at 10 °C on an autosampler tray for 21 h. The freeze/thaw stability was evaluated by four cycles of freezing at −80 °C and thawing at room temperature.

[2] = Tissue distribution study in minipigs after intravenous administration; assay type: in vivo, Yucatan minipigs; settings: minipig; for T/P Ratio Kidney/Plasma / T/P Ratio Liver/Plasma / Kp at 2 h / concentration at 2 h: 2 h after intravenous administration of 12.5 mg/kg; for T/P Ratio Kidney/Plasma / T/P Ratio Liver/Plasma / Kp at 2 h: 12.5 mg/kg; for Kp at 2 h / concentration at 2 h: Yucatan; for Kp at 2 h: iv
Protocol: A tissue distribution study was conducted involving intravenous injection of minipigs with 3′-SL and 6′-SL at a dose of 12.5 mg/kg. Kidney, liver, and blood samples were collected. The tissue to plasma (T/P) ratio was also calculated from the concentrations of 3′-SL and 6′-SL in the kidney, liver, and plasma, from the same minipigs at the same time points.
The tissue distribution of 3′-SL and 6′-SL in Yucatan minipigs was assessed following intravenous administration at a dose of 12.5 mg/kg. The animal experiments were performed in compliance with the Animal Welfare Act and Guide for the Care and Use of Laboratory Animals of Institute for Laboratory Animal Research (ILAR). The animals were kept in a single cage at constant room temperature (23 ± 3 °C) and 30–70% humidity under a regular 12-h light/12-h dark cycle. Animals were provided with approximately 25 g/kg/day food and water was freely available.
Two minipigs were sacrificed at 2 h after administration; liver and kidney tissues, and blood from the jugular vein, were then collected. Each tissue was immediately removed and washed with normal saline, blotted dry with a paper towel, cut into pieces with scissors, and individually homogenized with three volumes of normal saline (v/w) in an Ultra-Turrax apparatus (IKA Works, Wilmington, NC, USA). After blood collection into K2-EDTA tubes, blood samples were gently mixed and placed on crushed wet-ice/Kryorack (Streck Laboratories, Omaha, NE, USA). Following centrifugation at 20,740 × g for 3 min at 4 °C for separation of plasma, the plasma was transferred into labeled polypropylene tubes.
The collected tissues were analyzed using the method developed in this study, and the plasma was analyzed by the method described in our previous study (in press).

[3] = Biological sample stability: freeze/thaw, four cycles; assay type: physicochemical, minipig; settings: for Freeze/thaw stability, RE (%): four cycles -80 °C/room temperature, n = 3; for Freeze/thaw stability (RE), range: all QC samples of 3′-SL and 6′-SL pooled, four cycles
Protocol: as §1, §2

[4] = Biological sample stability: benchtop (room temperature 4 h) and long-term (-80 °C, 34 days); assay type: physicochemical, minipig; settings: for Benchtop and long-term stability, RE (%): -80 °C 34 days then room temperature 4 h, n = 3; for Benchtop and long-term stability values (RE), range: all QC samples of 3′-SL and 6′-SL pooled
Protocol: as §1, §2

[5] = kidney QC samples of 3′-SL and 6′-SL pooled
[6] = kidney, LQC (nominal = background concentration)
[7] = liver QC samples of 3′-SL and 6′-SL pooled
[8] = liver, LQC (nominal = background concentration)
[9] = kidney / plasma, read-out: T/P Ratio Kidney/Plasma
[10] = liver / plasma, read-out: T/P Ratio Liver/Plasma
[11] = kidney, read-out: Tissue Concentration Kidney
[12] = liver, read-out: Tissue Concentration Liver
[13] = plasma, read-out: Tissue Concentration Plasma

| SMILES | Post-preparative stability (RE), range [1, 5] | Post-preparative stability, RE (%) ([1]; kidney, HQC 15,000 ng/g) | Post-preparative stability, RE (%) [1, 6] | Post-preparative stability (RE), range [1, 7] | Post-preparative stability, RE (%) ([1]; liver, HQC 15,000 ng/g) | Post-preparative stability, RE (%) [1, 8] | T/P Ratio Kidney/Plasma [2] | T/P Ratio Liver/Plasma [2] | Kp at 2 h [2, 9] | Kp at 2 h [2, 10] | concentration at 2 h [2, 11] | concentration at 2 h [2, 12] | concentration at 2 h [2, 13] | Freeze/thaw stability, RE (%) ([3]; kidney, HQC 15,000 ng/g) | Freeze/thaw stability, RE (%) [3, 6] | Freeze/thaw stability (RE), range ([3]; kidney) | Freeze/thaw stability, RE (%) ([3]; liver, HQC 15,000 ng/g) | Freeze/thaw stability, RE (%) [3, 8] | Freeze/thaw stability (RE), range ([3]; liver) | Benchtop and long-term stability, RE (%) ([4]; kidney, HQC 15,000 ng/g) | further results |
| --- | --- | --- | --- | --- | --- | --- | --- | --- | --- | --- | --- | --- | --- | --- | --- | --- | --- | --- | --- | --- | --- |
| CC(=O)N[C@H]1[C@H]([C@H](O)[C@H](O)CO)O[C@@](O[C@H]2[C@@H](O)[C@@H](CO)O[C@@H](O[C@H]3[C@H](O)[C@@H](O)[C@H](O)O[C@@H]3CO)[C@@H]2O)(C(=O)O)C[C@@H]1O [3′-SL, 3′-sialyllactose] | −10.2% to 4.7 | −3.3% | −10.2% | –3.1% to 8.7 | −2.7% | −1.3% | 1.0 | 0.12 | 1 to 1.3 | 0.12 to 0.14 | 22300 ng/g | 2550 ng/g | 21500 ng/g | −8.0% | −3.2% | −9.3% to −3.2 | −6.7% | −5.8% | −6.7% to 7.6 | −6.0% | Benchtop and long-term stability, RE (%) [4, 6]: −9.2%; Benchtop and long-term stability values (RE), range ([4]; kidney): −10.1% to −6.0; Benchtop and long-term stability, RE (%) ([4]; liver, HQC 15,000 ng/g): −5.3%; Benchtop and long-term stability, RE (%) [4, 8]: −7.6%; Benchtop and long-term stability values (RE), range ([4]; liver): −7.6% to 3.7 |
| CC(=O)NC1C(O)CC(OCC2OC(OC3C(CO)OC(O)C(O)C3O)C(O)C(O)C2O)(C(=O)O)OC1C(O)C(O)CO (stereo not drawn) [6′-SL, 6′-sialyllactose] | −10.2% to 4.7 | 4.7% | 0.5% | –3.1% to 8.7 | 8.7% | −3.1% | 1.3 | 0.14 | 1 to 1.3 | 0.12 to 0.14 | 27000 ng/g | 3030 ng/g | 21000 ng/g | −9.3% | −6.8% | −9.3% to −3.2 | −5.3% | 7.6% | −6.7% to 7.6 | −6.7% | Exposure of tissues to 6′-SL higher than that of 3′-SL ([2]; liver and kidney, 2 h after i.v. 12.5 mg/kg): approximately 20%; Benchtop and long-term stability, RE (%) [4, 6]: −10.1%; Benchtop and long-term stability values (RE), range ([4]; kidney): −10.1% to −6.0; Benchtop and long-term stability, RE (%) ([4]; liver, HQC 15,000 ng/g): −3.3%; Benchtop and long-term stability, RE (%) [4, 8]: 3.7%; Benchtop and long-term stability values (RE), range ([4]; liver): −7.6% to 3.7 |
